Measurements reported in patent EP0495091B1 (Metabasis Therapeutics Inc., priority 1990, dated 1992).
Several values for one entry are separate records, joined by “and”; a condition that tells them apart may be missing. Equal entries are not always repeated. Where two headings read alike, the source gives them in different places.

Experiments:
[1] = system: platelet aggregation in human whole blood; assay: Inhibition of platelet aggregation in human whole blood; type: cell-based; settings: 10 minutes at 37°C, 10 µM adenosine added 5 minutes before, ADP (6-25 µM) induced, impedance technique
Procedure: Whole blood was drawn from healthy donors and collected in 0.1 vol. of sodium citrate to prevent coagulation. Platelet aggregation was measured by the impedance technique using a Whole Blood Aggregometer.

[2] = system: coronary endothelial cells; assay: Inhibition of adenosine utilization in cell culture; type: cell-based; settings: for Inhibition of Adenosine Utilization (%): 1 µM [3H] adenosine, 15 minutes; for inhibition at 5 µM / inhibition at 50 µM: Endothelial cell, read-out: Inhibition of Adenosine Utilization (%)
Procedure: Inhibition of adenosine utilization was determined by measuring the concentration of extracellular adenosine by scintillation counting following separation by thin layer chromatography (TLC).

[3] = molecular target: T1, NBTI-specific adenosine transport site (Homo sapiens, UniProt Q99808); assay: [3H]-NBTI binding assay; settings: 50% displacement of bound [3H]-NBTI (0.5 nM); neuronal membrane protein, 30 minutes, pH 7.4, room temperature; read-out: ED50 (the source's name)
T1 construct: incubated for 30 minutes with 0.5 mg neuronal membrane protein together with 0.5 nM [^3H]-NBTI; from tissue
T1 sequence (Q99808 1-456): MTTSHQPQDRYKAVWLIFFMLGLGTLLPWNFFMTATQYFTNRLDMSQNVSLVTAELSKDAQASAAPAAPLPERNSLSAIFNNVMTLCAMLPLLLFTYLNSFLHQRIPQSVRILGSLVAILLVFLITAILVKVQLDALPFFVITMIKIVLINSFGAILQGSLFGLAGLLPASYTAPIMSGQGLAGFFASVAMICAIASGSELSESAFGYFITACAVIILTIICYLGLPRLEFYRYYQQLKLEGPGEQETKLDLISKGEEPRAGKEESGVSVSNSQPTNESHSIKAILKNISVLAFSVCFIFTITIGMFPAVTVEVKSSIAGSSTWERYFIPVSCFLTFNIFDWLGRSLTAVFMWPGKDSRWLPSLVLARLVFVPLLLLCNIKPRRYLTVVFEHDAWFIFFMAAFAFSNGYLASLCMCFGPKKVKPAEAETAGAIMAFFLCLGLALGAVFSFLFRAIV
Procedure: Increasing concentrations of the test compounds were incubated for 30 minutes with 0.5 mg neuronal membrane protein together with 0.5 nM [^3H]-NBTI in a Tris buffer (pH 7.4) at room temperature. The assays were quenched and membranes collected by rapid filtration. Filters were then solubilized and radioactivity determined by scintillation counting.

Isolated rat hearts = assay: Improved functional recovery in isolated hearts (Langendorff, post-ischemic LVDP); settings: 30 min ischemia, 30 min reperfusion, number in brackets = hearts
Procedure: Isolated rat hearts were cannulated via the ascending aorta and attached to a perfusion apparatus according to the method of Langendorff. The hearts were perfused at a constant pressure of 100 cm of H2O with a modified Krebs-Henseleit buffer (pH 7.4) at 37°C. As a measure of heart function, left ventricular developed pressure (LVDP) was continuously monitored. Following equilibration of the hearts for a period of 30 min., the hearts were subjected to reduced flow i.e. ischemia, by reducing the pressure to 10 cm of H2O for 30 min. Flow was then restored by returning the pressure to its original level (100 cm of H2O) for a further 30 min.

[4] = system: longitudinal muscle from the guinea pig ileum; assay: Inhibition of stimulated contraction in isolated ileum
Procedure: Parallel platinum electrodes were used to deliver electrical current at 1 minute intervals at a voltage adequate to induce contraction of 90% of maximal.

[5] = Oral bioavailability and half-life in fasted adult beagles; settings: dog, in vivo
Procedure: Heparinized blood and urine were collected at selected intervals over 24 hours. Each sample was chilled, centrifuged at 4°C and frozen prior to HPLC analysis.

Anesthetized male dogs = type: in vivo; settings: n = 6
Procedure: Anesthetized male dogs were instrumented to measure regional myocardial wall thickening during right atrial pacing in the presence of a stenosis of the left anterior descending artery (Young & Mullane Am. J. Physiol. in press (1991)). In Table XIA, the effects on wall thickening and arterial pressure of six repeated episodes of pacing in animals treated with a continuous IV infusion of 50 µg/kg/min of the test compound administered post-pace #1 are compared with saline-treated control animals. […]

[6] = Cavia porcellus, concentration which inhibited electrically stimulated contraction by 50%, read-out: IC50
[7] = concentration which inhibited electrically stimulated contraction by 50%, read-out: IC50

SMILES | IC50 ([1]; Homo sapiens, Platelet) [µM] | EC50 [3] [µM] | IC50 ([4]; Cavia porcellus) [µM] | inhibition at 5 µM [2] [%] | inhibition at 50 µM [2] [%] | also measured
[N-]=[N+]=NC[C@H]1O[C@@H](n2cnc(C(=O)NCc3ccc([N+](=O)[O-])cc3)c2N)[C@H](O)[C@@H]1O [Compound No. 71, 5-Amino-1-(5-azido-5-deoxy-B-D-ribofuranosyl)imidazole-4-N-[(4-nitrophenyl)methyl]carboxamide] |  |  |  |  |  | IC50 [1]: 40 µM; Inhibition of Adenosine Utilization (%) ([2]; 5 µM test compound): 10 ± 3%; Inhibition of Adenosine Utilization (%) ([2]; 50 µM test compound): 31 ± 11%
Nc1c(C(=O)NCc2ccc(Cl)cc2)ncn1[C@@H]1O[C@H](CO)[C@@H](O)[C@H]1O [Compound No. 29, 5-amino-1-β-D-ribofuranosylimidazole-4-N-[(4-Chlorophenyl)methyl]carboxamide] | 90 | 100 | 60 | 41 ± 11 | 67 ± 8 | Function Recovery % Baseline LVDP (% of hearts) (Isolated rat hearts; 1 µM in perfusion buffer): 76.7±2.9 (7) %
Nc1c(C(=O)NCCc2ccc([N+](=O)[O-])cc2)ncn1[C@@H]1O[C@H](CO)[C@@H](O)[C@H]1O [Compound No. 59] | 70 | 2 |  |  |  | Function Recovery % Baseline LVDP (% of hearts) (Isolated rat hearts; 1 µM in perfusion buffer): 75.8±2.2 (7) %
Nc1c(C(=O)NCc2ccc([N+](=O)[O-])cc2)ncn1[C@@H]1O[C@H](CO)[C@@H](O)[C@H]1O [Compound No. 23, 5-Amino-1-β-D-ribofuranosyl-imidazole-4-N-[(4-nitrophenyl)methyl]carboxamide] | 38 | 3 | 3 | 27 ± 4 | 63 ± 2 | Function Recovery % Baseline LVDP (% of hearts) (Isolated rat hearts; 1 µM in perfusion buffer): 79.0±2.3 (6) %
NC(=O)c1nc(S)n([C@@H]2O[C@H](CO)[C@@H](O)[C@H]2O)c1N [Compound No. 27, 5-amino-2-thio-1-β-D-ribofuranosyl imidazole-4-carboxamide] | 950 | 344 | 500 |  |  | Function Recovery % Baseline LVDP (% of hearts) (Isolated rat hearts; 5 µM in perfusion buffer): 74.6±3.7 (7) %
Nc1c(C(=O)SCc2ccc([N+](=O)[O-])cc2)ncn1[C@@H]1O[C@H](CO)[C@@H](O)[C@H]1O |  | 0.5 | 10 | 17 ± 3 | 19 ± 2 | Function Recovery % Baseline LVDP (% of hearts) (Isolated rat hearts; 1 µM in perfusion buffer): 74.0±2.8 (6) %
NC(=O)c1nc(Sc2ccccc2)n([C@@H]2O[C@H](CO)[C@@H](O)[C@H]2O)c1N [Compound No. 43, 5-Amino-2-thiophenyl-1-β-D-ribofuranosylmidazole-4-carboxamide] | 620 | 71 | 200 |  |  | 
Nc1c(C(=O)NCc2ccc(Br)cc2)ncn1[C@@H]1O[C@H](CO)[C@@H](O)[C@H]1O [Compound No. 56, 5-Amino-1-β-D-ribofuranosyl-imidazole-4-N-[(4-bromophenyl)methyl]carboxamide] | 75 | 32 |  | 55 ± 7 | 65 ± 9 | 
Nc1c(C(=O)NCc2ccc(Cl)cc2Cl)ncn1[C@@H]1O[C@H](CO)[C@@H](O)[C@H]1O [Compound No. 25, 5-amino-1-β-D-ribofuranosylimidazole-4-N-[(2,4-dichlorophenyl)methyl]carboxamide] |  | 72 | 20 | 21 ± 1 | 56 ± 2 | Function Recovery % Baseline LVDP (% of hearts) (Isolated rat hearts; 5 µM in perfusion buffer, listed as 25 (1-360)): 86.8±2.3 (6) % and 72.4±1.6 (6) %
COc1ccc(CNC(=O)c2ncn([C@@H]3O[C@H](CO)[C@@H](O)[C@H]3O)c2N)cc1 [Compound No. 39, 5-Amino-1-β-D-ribofuranosyl-imidazole-4-N-(p-methoxybenzyl)carboxamide] |  | 600 | 500 | 7 ± 4 | 29 ± 1 | 
CCCCO[C@@H]1[C@H](O)[C@@H](CO)O[C@H]1n1cnc(C(N)=O)c1N [Compound No. 32, 5-amino-1-(2-O-n-butyl-β-D-ribofuranosyl) imidazole-4-carboxamide] | 350 |  |  |  |  | IC50 [4, 6]: 100 µM
NC(=O)c1ncn([C@@H]2O[C@H](CCl)[C@@H](O)[C@H]2O)c1N [Compound No. 26, 5-amino-1-(5-chloro-5-deoxy-β-D-ribofuranosyl) imidazole-4-carboxamide] |  |  |  |  |  | Function Recovery % Baseline LVDP (% of hearts) (Isolated rat hearts; 5 µM in perfusion buffer): 70.7±4.1 (8) %; IC50 [4, 7]: 200 µM
NC[C@H]1O[C@@H](n2cnc(C(N)=O)c2N)[C@H](O)[C@@H]1O [Compound No. 21, 5'-Amino-5'-deoxy-AICA-riboside] |  |  |  |  |  | Function Recovery % Baseline LVDP (% of hearts) (Isolated rat hearts; 1 µM in perfusion buffer): 77.0±4.4 (10) %; Function Recovery % Baseline LVDP (% of hearts) (Isolated rat hearts; 5 µM in perfusion buffer): 81.0±3.2 (8) %; bioavailability ([5]; po, fasted adult beagles, 10 mg/kg IV bolus and 20 mg/kg solution via stomach tube, read-out: Absolute Oral Bioavailability %): 71%; half-life ([5]; fasted adult beagles): 1.3 h; IC50 [4, 6]: 800 µM
Nc1c(C(=O)NCc2cccc([N+](=O)[O-])c2)ncn1[C@@H]1O[C@H](CO)[C@@H](O)[C@H]1O [Compound No. 28, 5-amino-1-β-D-ribofuranosylimidazole-4-N-[(3-nitrophenyl)methyl]carboxamide] | 180 | 15 |  | 17 ± 3 | 47 ± 2 | 
Cl.NC[C@H]1O[C@@H](n2cnc(C(=O)NCc3ccc(Cl)cc3)c2N)[C@H](O)[C@@H]1O [Compound No. 53, 5-Amino-1-(5-amino-5-deoxy-β-D-ribofuranosyl)imidazole-4-N-[(4-chlorophenyl)methyl]carboxamide Hydrochloride] |  | ~100 |  |  |  | IC50 [1]: 150 µM; Function Recovery % Baseline LVDP (% of hearts) (Isolated rat hearts; 5 µM in perfusion buffer): 85.6±1.8 (10) %; Half Life [5]: 5.61 h; Absolute Oral Bioavailability % ([5]; po): 53 (1-468) 32%; IC50 [4, 7]: 70 µM; Inhibition of Adenosine Utilization (%) ([2]; 5 µM test compound): 34 ± 4%; Inhibition of Adenosine Utilization (%) ([2]; 50 µM test compound): 58 ± 2%; % of NON-ISCHEMIC WALL THICKENING (Anesthetized male dogs; Pace # 1 (infusion started post-pace #1)): 49.5 ± 6.5%; % of NON-ISCHEMIC WALL THICKENING (Anesthetized male dogs; Pace # 2, continuous IV infusion of 50 µg/kg/min): 46.7 ± 7.0%; % of NON-ISCHEMIC WALL THICKENING (Anesthetized male dogs; Pace # 3, continuous IV infusion of 50 µg/kg/min): 54.2 ± 9.4 %; % of NON-ISCHEMIC WALL THICKENING (Anesthetized male dogs; Pace # 4, continuous IV infusion of 50 µg/kg/min): 48.1 ± 7.6 %; % of NON-ISCHEMIC WALL THICKENING (Anesthetized male dogs; Pace # 5, continuous IV infusion of 50 µg/kg/min): 47.5 ± 8.2 %; % of NON-ISCHEMIC WALL THICKENING (Anesthetized male dogs; Pace # 6, continuous IV infusion of 50 µg/kg/min): 42.1 ± 7.0 %
C[C@H]1O[C@@H](n2cnc(C(=O)NCc3ccc(Cl)cc3)c2N)[C@H](O)[C@@H]1O [Compound No. 61, 5-Amino-1-(5-deoxy-β-D-ribofuranosyl) imidazole-4N-[(4-chlorophenyl)methyl]carboxamide] | 171 | 32 |  | 37 ± 28 | 72 ± 5 | 
NC[C@H]1O[C@@H](n2cnc(C(=O)NCc3ccc([N+](=O)[O-])cc3)c2N)[C@H](O)[C@@H]1O [Compound No. 72] |  |  |  |  |  | IC50 [1]: 300 µM
Cc1ccc(CNC(=O)c2ncn([C@@H]3O[C@H](CO)[C@@H](O)[C@H]3O)c2N)cc1 [Compound No. 30, 5-amino-1-β-D-ribofuranosylimidazole-4-N-[(4-methylphenyl)methyl]carboxamide] |  | 225 | 20 | 21 ± 1 | 49 ± 4 | 
